Experimental data reported in US5998362A, “Conjugates useful in the treatment of prostate cancer” (priority 1997, dated 1999).
Where a SMILES comes first, the peptide text is derived from it. [ ]: non-standard residue; d: D form. The star is where a group is joined. Decanoyl(3,6,9-trioxa) = COCCOCCOCC(=O)*; Glyceroyl(2S) = O=C([C@@H](O)CO)*; Glyceroyl(2R) = O=C([C@H](O)CO)*; hArg = N=C(N)NCCCC[C@H](N)C(=O)O; 3Pal = N[C@@H](Cc1cccnc1)C(=O)O; MeOCH2CH2OCH2CO = COCCOCC(=O)*; X4 = O=C([C@H](O)[C@@H](O)CO)*; Chg = N[C@H](C(=O)O)C1CCCCC1; hSer = N[C@@H](CCO)C(=O)O; Nle = CCCC[C@H](N)C(=O)O; Glycolyl = O=C(CO)*; X3 = O=C(C(O)CO)*

target: free PSA (Homo sapiens, UniProt P07288); assay: Recognition of oligopeptides by free PSA (time to 50% cleavage, HPLC); conditions: Table 2, oligopeptides; PSA digestion buffer 12 mM Tris pH8.0, 25 mM NaCl, 0.5 mM CaCl2; substrate:PSA 100 to 1
Method: The oligopeptides prepared as described in Example 1 were individually dissolved in PSA digestion buffer (12 mM tris(hydroxymethyl)-aminomethane pH8.0, 25 mM NaCl, 0.5 mM CaCl2) and the solution added to PSA at a molar ration of 100 to 1. The reaction is quenched after various reaction times by the addition of trifluoroacetic acid (TFA) to a final 1% (volume/volume). The quenched reaction was analyzed by HPLC on a reversed-phase C18 column using an aqueous 0.1% TFA/acetonitrile gradient. […] Oligopeptides containing free amine moieties (ie. comprising hArg, Orn, Lys and or 3PAL) were tested as TFA salts. All other oligopeptides were tested as neutral compounds.

Sequence of free PSA (P07288 25-261): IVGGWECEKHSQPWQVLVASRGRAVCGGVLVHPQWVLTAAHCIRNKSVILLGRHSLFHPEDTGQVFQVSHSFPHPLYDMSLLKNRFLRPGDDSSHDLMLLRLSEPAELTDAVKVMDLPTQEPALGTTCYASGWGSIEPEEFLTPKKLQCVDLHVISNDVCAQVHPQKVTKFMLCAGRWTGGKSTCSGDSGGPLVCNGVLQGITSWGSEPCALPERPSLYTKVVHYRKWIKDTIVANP

| SMILES | Time to 50% Substrate Cleavage by York PSA [min] |
| --- | --- |
| CC(C)C[C@H](NC(=O)[C@H](CO)NC(=O)[C@H](CCC(N)=O)NC(=O)[C@@H](NC(=O)[C@H](CO)NC(=O)[C@H](CO)NC(=O)[C@H](CO)NC(=O)[C@@H](O)CO)C1CCCCC1)C(=O)O [(I)2,3-dihydroxypropionyl-SSSChgQ-SL-acid] ({Glyceroyl(2S)}-SSS[Chg]QSL-OH) | 110 |

same assay, conditions: Table 2, oligopeptides; abbreviations not defined

| SMILES | Solubility remark in the cleavage column (INSOLUBLE / PS / PP) |
| --- | --- |
| CCCC[C@H](NC(=O)[C@H](CO)NC(=O)[C@H](CCC(N)=O)NC(=O)[C@@H](NC(=O)[C@H](CCCCNC(=N)N)NC(=O)[C@H](CO)NC(C)=O)C1CCCCC1)C(=O)O [Ac-ShRChgQ-SNle-acid] (Ac-S[hArg][Chg]QS[Nle]-OH) | INSOLUBLE |

same assay, conditions: free psa

| SMILES | Time to 50% Substrate Cleavage by York PSA (Min), values marked * [min] |
| --- | --- |
| CC(C)C[C@H](NC(=O)[C@H](CO)NC(=O)[C@H](CCC(N)=O)NC(=O)[C@@H](NC(=O)[C@H](CO)NC(=O)[C@H](CO)NC(=O)[C@H](CCCCNC(=N)N)NC(=O)[C@@H](O)CO)C1CCCCC1)C(=O)O [2(S)2,3-dihydroxypropionly-hRSSChgQ-SL-acid] ({Glyceroyl(2S)}-[hArg]SS[Chg]QSL-OH) | 25 |
| CC(C)C[C@H](NC(=O)[C@H](CO)NC(=O)[C@H](CCC(N)=O)NC(=O)[C@@H](NC(=O)[C@H](CCCCNC(=N)N)NC(=O)[C@H](CO)NC(=O)[C@@H](O)CO)C1CCCCC1)C(=O)O [2(S)-2,3-dihydroxy propionylShRChgQSL-acid] ({Glyceroyl(2S)}-S[hArg][Chg]QSL-OH) | 35 |
| CC(C)C[C@H](NC(=O)[C@H](CO)NC(=O)[C@H](CCC(N)=O)NC(=O)[C@@H](NC(=O)[C@H](CCCCNC(=N)N)NC(=O)[C@H](CO)NC(=O)CO)C1CCCCC1)C(=O)O [2-hydroxyacetyl-ShRChgQ-SL-acid] (Glycolyl-S[hArg][Chg]QSL-OH) | 30 |
| CC(C)C[C@H](NC(=O)[C@H](CO)NC(=O)[C@H](CCC(N)=O)NC(=O)[C@H](Cc1ccc(O)cc1)NC(=O)[C@H](CCCCNC(=N)N)NC(=O)CO)C(=O)O [2-hydroxyacetylhRYQ-SL-acid] (Glycolyl-[hArg]YQSL-OH) | 105 |
| CC(=O)N[C@@H](CCCCNC(=N)N)C(=O)N[C@@H](CO)C(=O)N[C@@H](CO)C(=O)N[C@H](C(=O)N[C@@H](CCC(N)=O)C(=O)N[C@@H](CO)C(=O)N[C@@H](CC(C)C)C(=O)O)C1CCCCC1 [AChRSSChgQ-SL-acid] (Ac-[hArg]SS[Chg]QSL-OH) | 45 |
| COCCOCC(=O)N[C@@H](CO)C(=O)N[C@@H](CCCCNC(=N)N)C(=O)N[C@H](C(=O)N[C@@H](CCC(N)=O)C(=O)N[C@@H](CO)C(=O)N[C@@H](CC(C)C)C(=O)O)C1CCCCC1 [PEG(1)-ShRChgQ-SL-acid] (MeOCH2CH2OCH2CO-S[hArg][Chg]QSL-OH) | 120 |

same assay, conditions: free psa, pH 8

| SMILES | Time to 50% Substrate Cleavage by York PSA [min] |
| --- | --- |
| CC(C)C[C@H](NC(=O)[C@H](CO)NC(=O)[C@H](CCC(N)=O)NC(=O)[C@@H](NC(=O)[C@H](CO)NC(=O)[C@H](CO)NC(=O)CNC(=O)C(O)CO)C1CCCCC1)C(=O)O (some centres unmarked) [2,3-dihydroxypropionyl-GSSChgQ-SL-acid] (X3-GSS[Chg]QSL-OH) | 160 |
| CC(C)C[C@H](NC(=O)[C@H](CO)NC(=O)[C@H](CCC(N)=O)NC(=O)[C@@H](NC(=O)[C@H](CO)NC(=O)[C@H](CO)NC(=O)[C@H](CO)NC(=O)C(O)CO)C1CCCCC1)C(=O)O (some centres unmarked) [2,3-dihydroxypropionyl-SSSChgQ-SL-acid] (X3-SSS[Chg]QSL-OH) | 120 |
| CC(C)C[C@H](NC(=O)[C@H](CO)NC(=O)[C@H](CCC(N)=O)NC(=O)[C@@H](NC(=O)[C@H](CO)NC(=O)[C@H](CO)NC(=O)[C@H](CCCCNC(=N)N)NC(=O)C(O)CO)C1CCCCC1)C(=O)O (some centres unmarked) [2,3-dihydroxypropionyl-hRSSChgQ-SL-acid] (X3-[hArg]SS[Chg]QSL-OH) | 50 |
| CC(C)C[C@H](NC(=O)[C@H](CO)NC(=O)[C@H](CCC(N)=O)NC(=O)[C@@H](NC(=O)[C@H](CO)NC(=O)[C@H](CO)NC(=O)[C@H](CCO)NC(=O)C(O)CO)C1CCCCC1)C(=O)O (some centres unmarked) [2,3-dihydroxypropionyl-hSSSChgQ-SL-acid] (X3-[hSer]SS[Chg]QSL-OH) | 160 |
| CC(C)C[C@H](NC(=O)[C@H](CO)NC(=O)[C@H](CCC(N)=O)NC(=O)[C@@H](NC(=O)[C@H](CCCCNC(=N)N)NC(=O)[C@H](CO)NC(=O)C(O)CO)C1CCCCC1)C(=O)O (some centres unmarked) [2,3-dihydroxypropionylShRChgQ-SL-acid] (X3-S[hArg][Chg]QSL-OH) | 75 |
| CC(C)C[C@H](NC(=O)[C@H](CO)NC(=O)[C@H](CCC(N)=O)NC(=O)[C@@H](NC(=O)[C@H](CO)NC(=O)[C@H](CO)NC(=O)CO)C1CCCCC1)C(=O)O [2-hydroxyacetyl-SSChgQ-SL-acid] (Glycolyl-SS[Chg]QSL-OH) | 180 |
| CC(C)C[C@H](NC(=O)[C@H](CO)NC(=O)[C@H](CCC(N)=O)NC(=O)[C@@H](NC(=O)[C@H](CCCCNC(=N)N)NC(=O)[C@H](CO)NC(=O)CO)C1CCCCC1)C(=O)O [2-hydroxyacetyl-ShRChgQ-SL-acid] (Glycolyl-S[hArg][Chg]QSL-OH) | 120 |
| CC(C)C[C@H](NC(=O)[C@H](CO)NC(=O)[C@H](CCC(N)=O)NC(=O)[C@@H](NC(=O)[C@H](CO)NC(=O)[C@H](C)NC(=O)[C@H](CCCCNC(=N)N)NC(=O)CO)C1CCCCC1)C(=O)O [2-hydroxyacetyl-hRASChgQ-SL-acid] (Glycolyl-[hArg]AS[Chg]QSL-OH) | 70 |
| CCCC[C@H](NC(=O)[C@H](CO)NC(=O)[C@H](CCC(N)=O)NC(=O)[C@H](Cc1ccc(O)cc1)NC(=O)[C@H](CO)NC(=O)[C@H](CO)NC(=O)[C@H](CCCCNC(=N)N)NC(=O)CO)C(=O)O [2-hydroxyacetyl-hRSSYQ-SNle-acid] (Glycolyl-[hArg]SSYQS[Nle]-OH) | 45 |
| CC(C)C[C@H](NC(=O)[C@H](CO)NC(=O)[C@H](CCC(N)=O)NC(=O)[C@@H](NC(=O)[C@H](CCCCNC(=N)N)NC(=O)[C@H](CO)NC(=O)[C@H](O)[C@@H](O)CO)C1CCCCC1)C(=O)O [(2R,3S)2,3,4-trihydroxybutanoyl-ShRChgQ-SL-acid] (X4-S[hArg][Chg]QSL-OH) | 90 |
| CC(C)C[C@H](NC(=O)[C@H](CO)NC(=O)[C@H](CCC(N)=O)NC(=O)[C@@H](NC(=O)[C@H](CO)NC(=O)[C@H](CO)NC(=O)[C@H](Cc1cccnc1)NC(=O)[C@@H](O)CO)C1CCCCC1)C(=O)O [(I)2,3-dihydroxypropionyl-3PAL-SSChgQ-SL-acid] ({Glyceroyl(2S)}-[3Pal]SS[Chg]QSL-OH) | 70 |
| CC(C)C[C@H](NC(=O)[C@H](CO)NC(=O)[C@H](CCC(N)=O)NC(=O)[C@@H](NC(=O)[C@H](CO)NC(=O)[C@H](CO)NC(=O)[C@@H](O)CO)C1CCCCC1)C(=O)O [(I)2,3-dihydroxypropionyl-SSChgQ-SL-acid] ({Glyceroyl(2S)}-SS[Chg]QSL-OH) | 180 |
| CC(C)C[C@H](NC(=O)[C@H](CO)NC(=O)[C@H](CCC(N)=O)NC(=O)[C@@H](NC(=O)[C@H](CO)NC(=O)[C@H](CO)NC(=O)[C@H](CO)NC(=O)[C@@H](O)CO)C1CCCCC1)C(=O)O [(I)2,3-dihydroxypropionyl-SSSChgQ-SL-acid] ({Glyceroyl(2S)}-SSS[Chg]QSL-OH) | 80 |
| CC(C)C[C@H](NC(=O)[C@H](CO)NC(=O)[C@H](CCC(N)=O)NC(=O)[C@@H](NC(=O)[C@H](CO)NC(=O)[C@H](CO)NC(=O)[C@H](CO)NC(=O)CO)C1CCCCC1)C(=O)O [(OH-Ac)SSSChgQ-SL-acid] (Glycolyl-SSS[Chg]QSL-OH) | 120 |
| CC(C)C[C@H](NC(=O)[C@H](CO)NC(=O)[C@H](CCC(N)=O)NC(=O)[C@@H](NC(=O)[C@H](CO)NC(=O)[C@H](CO)NC(=O)[C@H](Cc1cccnc1)NC(=O)[C@H](O)CO)C1CCCCC1)C(=O)O [(d)2,3-dihydroxypropionyl-3PAL-SSChgQSL-acid] ({Glyceroyl(2R)}-[3Pal]SS[Chg]QSL-OH) | 80 |
| CC(=O)N[C@@H](CCCCNC(=N)N)C(=O)N[C@@H](CO)C(=O)N[C@@H](CO)C(=O)N[C@H](C(=O)N[C@@H](CCC(N)=O)C(=O)N[C@@H](CO)C(=O)N[C@@H](CC(C)C)C(=O)O)C1CCCCC1 [AChRSSChgQ-SL-acid] (Ac-[hArg]SS[Chg]QSL-OH) | 120 |
| CC(=O)N[C@@H](CCCCNC(=N)N)C(=O)N[C@@H](C)C(=O)N[C@@H](CO)C(=O)N[C@H](C(=O)N[C@@H](CCC(N)=O)C(=O)N[C@@H](CO)C(=O)N[C@@H](CC(C)C)C(=O)O)C1CCCCC1 [Ac-hRASChgQ-SL-acid] (Ac-[hArg]AS[Chg]QSL-OH) | 50 |
| COCCOCC(=O)N[C@@H](CO)C(=O)N[C@@H](CCCCNC(=N)N)C(=O)N[C@@H](Cc1ccc(O)cc1)C(=O)N[C@@H](CCC(N)=O)C(=O)N[C@@H](CO)C(=O)N[C@@H](CC(C)C)C(=O)O [PEG(1)-ShRYQ-SL-acid] (MeOCH2CH2OCH2CO-S[hArg]YQSL-OH) | 90 |
| COCCOCC(=O)N[C@@H](CCCCNC(=N)N)C(=O)N[C@@H](CO)C(=O)N[C@@H](CO)C(=O)N[C@H](C(=O)N[C@@H](CCC(N)=O)C(=O)N[C@@H](CO)C(=O)N[C@@H](CC(C)C)C(=O)O)C1CCCCC1 [PEG(1)-hRSSChgQ-SL-acid] (MeOCH2CH2OCH2CO-[hArg]SS[Chg]QSL-OH) | 30 |
| COCCOCCOCC(=O)N[C@@H](Cc1cccnc1)C(=O)N[C@@H](CO)C(=O)N[C@@H](CO)C(=O)N[C@H](C(=O)N[C@@H](CCC(N)=O)C(=O)N[C@@H](CO)C(=O)N[C@@H](CC(C)C)C(=O)O)C1CCCCC1 [PEG(2)-3PAL-SSChgQ-SL-acid] ({Decanoyl(3,6,9-trioxa)}-[3Pal]SS[Chg]QSL-OH) | 80 |
| COCCOCCOCC(=O)N[C@@H](CO)C(=O)N[C@@H](CCCCNC(=N)N)C(=O)N[C@H](C(=O)N[C@@H](CCC(N)=O)C(=O)N[C@@H](CO)C(=O)N[C@@H](CC(C)C)C(=O)O)C1CCCCC1 [PEG(2)-S-hRChgQ-SL-acid] ({Decanoyl(3,6,9-trioxa)}-S[hArg][Chg]QSL-OH) | 30 |
